Series [1] deals with human pluripotent stem cells. The experiment in a line: Cell density of human pluripotent stem cells after 5 days culture in waste-added medium (cell counter). Type of series: cell-based. The following applies: ammonium chloride added. Here is the method:
(§1) Onto a 24-well plate (Corning cellBIND Surface: from Corning Incorporated), seeded were 1×10^3 human pluripotent stem cells, to which a medium for pluripotent stem cell (StemFit: from Ajinomoto Co. Inc.) was added, and then cultured. To the medium before 24 hours from the start of culture, a culture substrate (iMatrix-511; from Nippi, Inc.) was added so as to adjust the concentration to 0.5 μg/ml, and also ROCK inhibitor (Y-27632: from FUJIFILM Wako Pure Chemical Corporation) was added so as to adjust the concentration to 10 μM.
After the elapse of 5 days, the number of cells in each well was measured by using TC20 full-automatic cell counter (from Bio-Rad Laboratories, Inc.), to calculate cell density. Results are illustrated in FIG. 5.
Onto a 24-well plate (Corning cellBIND Surface: from Corning Incorporated), seeded were 1×10^3 human pluripotent stem cells, to which a medium for pluripotent stem cell (StemFit: from Ajinomoto Co. Inc.) was added, and then cultured. […]
After the elapse of 5 days, the number of cells in each well was measured by using TC20 full-automatic cell counter (from Bio-Rad Laboratories, Inc.), to calculate cell density. […]

The subject of series [2] is human pluripotent stem cells. Nature of the series: Real-time PCR of undifferentiation/differentiation marker gene expression (Oct4, Nanog, T, Pax6, Fox2) on the 6th day of culture. It counts as cell-based. The following applies: ammonia 2.5 mM. Here is the method:
mRNA was then extracted from each cell on the 6th day of culture, using RNeasy Mini Kit (from QIAGEN N.V.), and then purified. Next, cDNA was synthesized from the thus purified mRNA, by using QuantiTect Reverse Transcription Kit (from QIAGEN N.V.). By using each cDNA as a template, and by using Thermal Cycler Dice Real Time System I (from Takara Bio Inc.), expression levels of Oct4, Nanog, T, Pax6 and Fox2 genes were measured by real-time PCR.
Proportion of expression levels of the individual genes at the individual concentration levels of ammonia were calculated, on the basis of the expression level at an ammonia concentration of 0 mM. FIG. 10 is a chart summarizing relation between the ammonia concentration and the gene expression levels. […] This confirms that keeping of the ammonia concentration at lower than 2.5 mM is effective to keep the cell in the undifferentiated state. It was also confirmed that the ammonia-induced promotion of cell differentiation may be suppressed more reliably, by keeping the ammonia concentration at 1 mM or below.
(Real-time PCR tracks product formation cycle by cycle.)

The test system of series [3] is human pluripotent stem cells. Nature of the series: Optical microscope observation of cells on the 5th day of culture in waste-added medium. It counts as cell-based. The protocol:
as §1
The individual cells on the 5th day of culture were observed under an optical microscope. FIG. 6 presents optical microphotographs of the cells cultured in the lactic acid-added medium.
Onto a 24-well plate (Corning cellBIND Surface: from Corning Incorporated), seeded were 1×10^3 human pluripotent stem cells, to which a medium for pluripotent stem cell (StemFit: from Ajinomoto Co. Inc.) was added, and then cultured. To the medium before 24 hours from the start of culture, a culture substrate (iMatrix-511; from Nippi, Inc.) was added so as to adjust the concentration to 0.5 μg/ml, and also ROCK inhibitor (Y-27632: from FUJIFILM Wako Pure Chemical Corporation) was added so as to adjust the concentration to 10 μM. […]

The nature of series [4]: pH of medium after addition of lactic acid (pH-uncorrected group). It counts as physicochemical.

Bounds are passed on as bounds.

`N` [ammonia]: the “ammonia concentration at which cell density sharply decreases” value in series [1] is at least 10.0 mM. In series [2], the “expression level of Pax6 gene (ectoderm differentiation marker) relative to level at 0 mM” value is “nearly ten times” and the “expression level of T gene (mesoderm differentiation marker) relative to level at 0 mM” value is reported as “nearly ten times”. Moreover, in series [3], the “ammonia concentration at which morphological changes of the cell were observed” value was at least 2.5 mM.

Consider `CC(O)C(=O)O` (centres unmarked) [lactic acid], for which the “pH of the medium” value in series [4] (lactic acid concentration 5.0 mM) came to 6.9; in series [4] (lactic acid concentration 7.5 mM), 6.8; in series [4] (lactic acid concentration 10 mM) it was 6.7; in series [4] (lactic acid concentration 15 mM), 6.5.

Source of the values: patent US20210171904A1, “CELL CULTURE METHOD AND CELL CULTURE APPARATUS” (NIKKISO CO., LTD., priority 2018, published 2021).
